Six compounds from patent US11981658B2, “Substituted aminopyridine compounds as EGFR inhibitors” (YUHAN CORPORATION, priority 2021, dated 2024) can be followed below.

One experiment has as its target EGFR L858R/T790M/C797S (Homo sapiens, UniProt P00533, C797S/L858R/T790M). In words: Biochemical EGFR kinase inhibition assay (Lance Ultra TR-FRET), triple mutant L858R/T790M/C797S. In outline:
(§1)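 Kinase activity is measured by TR-FRET phosphopeptide detection. Compounds span 0.003 μM to 10 μM; the 1 h reaction at room temperature is quenched with EDTA, then labelled antibody (2 nM) is incubated 60 min before reading.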

For another experiment, the target named is EGFR L858R/C797S (Homo sapiens, UniProt P00533, C797S/L858R). Nature of the experiment: Biochemical EGFR kinase inhibition assay (Lance Ultra TR-FRET), double mutant L858R/C797S. The method in brief: as §1
In general terms: TR-FRET usually uses a lanthanide donor and a delayed reading to cut background.

The target in the next experiment is EGFR Del19/T790M/C797S (Homo sapiens, UniProt P00533, C797S/DEL746-750/T790M). Nature of the experiment: Biochemical EGFR kinase inhibition assay (Lance Ultra TR-FRET), triple mutant del19/T790M/C797S. The method in brief: as §1
The next experiment concerns the target EGFR wildtype (WT) (Homo sapiens, UniProt P00533). Nature of the experiment: Biochemical EGFR kinase inhibition assay (Lance Ultra TR-FRET), wildtype. In outline: as §1
For another experiment, the target named is EGFR Del19/C797S (Homo sapiens, UniProt P00533, C797S/DEL746-750). In words: Biochemical EGFR kinase inhibition assay (Lance Ultra TR-FRET), double mutant del19/C797S. In outline: as §1
Setting [1] is: IC50 L858R/T790M/C797S (nM), 100 μM ATP.
Where [2] appears, read: Km ATP, read-out: IC50 L858R/T790M/C797S (nM) Km ATP.
Setting [3] is: IC50 L858R/C797S (nM), 100 μM ATP.
[4] abbreviates: Km ATP, read-out: IC50 L858R/C797S (nM) Km ATP.
[5] abbreviates: IC50 Del19/T790M/C797S (nM), 100 μM ATP.
Where [6] appears, read: Km ATP, read-out: IC50 Del19/T790M/C797S (nM) Km ATP.
Setting [7] is: Km ATP, read-out: IC50 WT (nM) Km ATP.
[8] abbreviates: IC50 Del19/C797S (nM), 100 μM ATP.
The mark [9] stands for this setting: Km ATP, read-out: IC50 Del19/C797S (nM) Km ATP.
[10] abbreviates: ATP at Km, read-out: IC50 L858R/T790M/C797S (nM), Km ATP.
[11] abbreviates: ATP at Km, read-out: IC50 L858R/C797S (nM), Km ATP.
Where [12] appears, read: ATP at Km, read-out: IC50 Del19/T790M/C797S (nM), Km ATP.
Where [13] appears, read: ATP at Km, read-out: IC50 WT (nM), Km ATP.
The mark [14] stands for this setting: ATP at Km, read-out: IC50 Del19/C797S (nM), Km ATP.

Each structure is given as a SMILES string. Read-outs that look alike come from different tables or passages of the source. Bounds are passed on as bounds.

Sequence of EGFR wildtype (WT) (P00533 25-1210): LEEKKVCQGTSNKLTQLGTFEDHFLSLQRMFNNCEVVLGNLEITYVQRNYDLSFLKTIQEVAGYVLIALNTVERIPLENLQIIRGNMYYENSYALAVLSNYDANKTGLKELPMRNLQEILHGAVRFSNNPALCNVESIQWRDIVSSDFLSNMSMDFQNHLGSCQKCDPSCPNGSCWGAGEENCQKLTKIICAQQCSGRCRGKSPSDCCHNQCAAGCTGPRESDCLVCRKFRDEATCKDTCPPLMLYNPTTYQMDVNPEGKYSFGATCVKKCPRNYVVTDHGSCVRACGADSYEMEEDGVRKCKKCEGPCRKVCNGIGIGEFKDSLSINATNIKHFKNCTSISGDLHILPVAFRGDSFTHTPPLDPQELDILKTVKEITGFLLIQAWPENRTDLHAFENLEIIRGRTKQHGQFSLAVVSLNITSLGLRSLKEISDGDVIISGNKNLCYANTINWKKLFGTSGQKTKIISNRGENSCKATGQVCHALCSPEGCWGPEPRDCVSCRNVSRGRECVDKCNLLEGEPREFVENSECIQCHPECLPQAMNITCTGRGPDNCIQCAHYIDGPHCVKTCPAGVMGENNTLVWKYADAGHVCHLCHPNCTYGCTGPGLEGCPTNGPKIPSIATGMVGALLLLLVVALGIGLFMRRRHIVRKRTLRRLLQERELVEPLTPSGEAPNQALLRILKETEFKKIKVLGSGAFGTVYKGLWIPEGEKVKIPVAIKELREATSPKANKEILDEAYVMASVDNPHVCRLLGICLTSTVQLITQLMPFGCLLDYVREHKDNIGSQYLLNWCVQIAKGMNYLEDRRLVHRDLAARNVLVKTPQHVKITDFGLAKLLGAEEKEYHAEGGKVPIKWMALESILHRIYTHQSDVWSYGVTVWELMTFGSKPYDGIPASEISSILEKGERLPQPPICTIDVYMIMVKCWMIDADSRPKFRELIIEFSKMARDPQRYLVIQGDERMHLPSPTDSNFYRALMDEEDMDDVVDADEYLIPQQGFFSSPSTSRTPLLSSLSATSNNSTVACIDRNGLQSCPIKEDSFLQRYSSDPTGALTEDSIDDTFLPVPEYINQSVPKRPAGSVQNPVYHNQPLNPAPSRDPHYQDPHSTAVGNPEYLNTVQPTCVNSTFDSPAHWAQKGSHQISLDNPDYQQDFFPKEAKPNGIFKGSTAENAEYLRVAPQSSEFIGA
Sequence of EGFR Del19/T790M/C797S (P00533 with tags, fused parts or gaps DEL746-750/T790M/C797S): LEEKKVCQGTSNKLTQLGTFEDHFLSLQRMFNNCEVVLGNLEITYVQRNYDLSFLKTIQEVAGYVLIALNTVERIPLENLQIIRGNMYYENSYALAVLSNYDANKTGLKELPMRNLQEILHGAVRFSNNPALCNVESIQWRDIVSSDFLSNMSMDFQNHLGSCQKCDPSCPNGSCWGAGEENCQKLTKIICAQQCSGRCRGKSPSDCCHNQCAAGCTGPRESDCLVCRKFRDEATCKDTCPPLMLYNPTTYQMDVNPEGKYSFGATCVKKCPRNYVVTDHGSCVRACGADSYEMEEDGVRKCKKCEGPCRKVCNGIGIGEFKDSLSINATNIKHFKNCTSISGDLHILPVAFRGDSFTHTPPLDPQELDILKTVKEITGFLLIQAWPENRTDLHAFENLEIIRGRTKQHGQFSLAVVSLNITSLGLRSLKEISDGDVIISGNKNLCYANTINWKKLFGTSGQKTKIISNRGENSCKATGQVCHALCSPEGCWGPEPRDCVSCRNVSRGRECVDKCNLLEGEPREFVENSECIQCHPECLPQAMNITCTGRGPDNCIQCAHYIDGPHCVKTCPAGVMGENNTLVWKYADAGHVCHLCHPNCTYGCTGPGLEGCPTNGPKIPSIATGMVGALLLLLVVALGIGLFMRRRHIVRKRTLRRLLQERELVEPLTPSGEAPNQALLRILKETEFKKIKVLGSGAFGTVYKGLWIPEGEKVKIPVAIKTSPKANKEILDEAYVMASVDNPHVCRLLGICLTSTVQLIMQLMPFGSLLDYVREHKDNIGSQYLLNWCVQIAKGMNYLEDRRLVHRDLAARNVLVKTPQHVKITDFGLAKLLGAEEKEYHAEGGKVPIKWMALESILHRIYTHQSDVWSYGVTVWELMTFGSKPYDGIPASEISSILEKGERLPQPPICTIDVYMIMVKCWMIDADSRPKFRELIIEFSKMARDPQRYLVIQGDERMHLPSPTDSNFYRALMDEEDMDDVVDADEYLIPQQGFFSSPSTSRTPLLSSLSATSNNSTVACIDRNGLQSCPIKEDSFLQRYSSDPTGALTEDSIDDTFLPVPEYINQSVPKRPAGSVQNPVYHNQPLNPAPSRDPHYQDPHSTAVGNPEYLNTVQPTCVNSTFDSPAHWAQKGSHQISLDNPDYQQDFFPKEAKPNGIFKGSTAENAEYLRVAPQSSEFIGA
Sequence of EGFR Del19/C797S (P00533 with tags, fused parts or gaps DEL746-750/C797S): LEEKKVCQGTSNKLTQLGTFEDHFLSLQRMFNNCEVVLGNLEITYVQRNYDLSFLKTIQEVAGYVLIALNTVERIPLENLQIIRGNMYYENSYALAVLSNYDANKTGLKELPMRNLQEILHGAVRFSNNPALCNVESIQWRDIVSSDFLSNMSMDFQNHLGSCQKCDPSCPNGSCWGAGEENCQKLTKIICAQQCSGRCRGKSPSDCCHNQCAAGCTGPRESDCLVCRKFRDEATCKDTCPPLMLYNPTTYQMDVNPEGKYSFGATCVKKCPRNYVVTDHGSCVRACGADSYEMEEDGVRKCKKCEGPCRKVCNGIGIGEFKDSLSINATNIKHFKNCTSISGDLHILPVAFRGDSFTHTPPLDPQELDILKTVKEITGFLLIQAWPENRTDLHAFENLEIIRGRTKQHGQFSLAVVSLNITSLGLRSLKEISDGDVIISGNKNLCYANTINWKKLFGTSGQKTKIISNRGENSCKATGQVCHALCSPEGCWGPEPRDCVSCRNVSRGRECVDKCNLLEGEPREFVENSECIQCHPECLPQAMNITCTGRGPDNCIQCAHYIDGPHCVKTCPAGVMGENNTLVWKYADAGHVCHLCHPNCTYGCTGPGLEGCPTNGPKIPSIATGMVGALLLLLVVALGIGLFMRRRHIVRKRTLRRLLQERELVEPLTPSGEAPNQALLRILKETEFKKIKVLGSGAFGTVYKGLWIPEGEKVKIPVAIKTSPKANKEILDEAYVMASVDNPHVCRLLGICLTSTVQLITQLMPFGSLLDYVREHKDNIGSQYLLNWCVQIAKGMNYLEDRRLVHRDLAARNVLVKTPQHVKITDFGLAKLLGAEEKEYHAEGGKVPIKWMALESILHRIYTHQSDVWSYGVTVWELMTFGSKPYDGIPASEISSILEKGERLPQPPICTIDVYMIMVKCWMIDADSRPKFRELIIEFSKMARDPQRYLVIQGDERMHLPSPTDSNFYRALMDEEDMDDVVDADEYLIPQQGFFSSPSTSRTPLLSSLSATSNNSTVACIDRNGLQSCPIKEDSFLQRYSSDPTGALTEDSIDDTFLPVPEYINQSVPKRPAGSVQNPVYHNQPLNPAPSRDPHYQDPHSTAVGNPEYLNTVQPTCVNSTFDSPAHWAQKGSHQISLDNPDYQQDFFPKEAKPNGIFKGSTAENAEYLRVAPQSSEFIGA
Sequence of EGFR L858R/C797S (P00533 25-1210 C797S/L858R): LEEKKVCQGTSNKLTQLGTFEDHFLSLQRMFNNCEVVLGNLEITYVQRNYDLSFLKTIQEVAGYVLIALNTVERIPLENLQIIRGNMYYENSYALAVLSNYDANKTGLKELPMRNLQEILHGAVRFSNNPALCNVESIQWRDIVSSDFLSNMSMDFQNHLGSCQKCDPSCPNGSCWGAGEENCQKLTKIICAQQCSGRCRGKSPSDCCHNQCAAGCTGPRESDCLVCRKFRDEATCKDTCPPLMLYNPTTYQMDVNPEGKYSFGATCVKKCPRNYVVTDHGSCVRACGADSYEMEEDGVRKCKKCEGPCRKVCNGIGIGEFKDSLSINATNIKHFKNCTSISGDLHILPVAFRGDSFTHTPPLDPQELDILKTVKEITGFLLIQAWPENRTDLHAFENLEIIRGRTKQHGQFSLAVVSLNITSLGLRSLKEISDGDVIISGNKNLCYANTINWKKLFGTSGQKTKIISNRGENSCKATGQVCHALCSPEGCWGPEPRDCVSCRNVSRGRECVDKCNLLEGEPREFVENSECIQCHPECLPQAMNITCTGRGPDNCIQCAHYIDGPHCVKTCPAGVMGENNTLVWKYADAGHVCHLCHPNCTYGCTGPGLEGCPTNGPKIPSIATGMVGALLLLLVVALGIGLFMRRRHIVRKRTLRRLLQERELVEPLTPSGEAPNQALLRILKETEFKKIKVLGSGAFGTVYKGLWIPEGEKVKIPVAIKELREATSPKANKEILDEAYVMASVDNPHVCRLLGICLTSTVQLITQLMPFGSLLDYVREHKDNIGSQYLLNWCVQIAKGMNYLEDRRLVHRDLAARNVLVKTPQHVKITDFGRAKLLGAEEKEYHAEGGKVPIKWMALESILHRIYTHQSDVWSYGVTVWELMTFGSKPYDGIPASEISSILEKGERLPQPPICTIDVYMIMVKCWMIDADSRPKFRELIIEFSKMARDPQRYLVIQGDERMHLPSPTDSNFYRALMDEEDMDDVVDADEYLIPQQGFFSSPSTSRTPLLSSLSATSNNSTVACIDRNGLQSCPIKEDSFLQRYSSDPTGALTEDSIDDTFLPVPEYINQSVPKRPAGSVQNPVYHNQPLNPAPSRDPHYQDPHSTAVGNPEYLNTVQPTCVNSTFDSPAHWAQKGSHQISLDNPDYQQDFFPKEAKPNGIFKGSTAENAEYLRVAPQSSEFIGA

Take `CC(O)C1CCN(c2cc(Nc3ccnc(-c4cnn(S(=O)(=O)C5CC5)c4)n3)ncc2C#Cc2cnn(C)c2)CC1` (centres unmarked) [Example 10, 1-(1-(2-((2-(1-(Cyclopropylsulfonyl)-1H-pyrazol-4-yl)pyrimidin-4-yl)amino)-5-((1-methyl-1H-pyrazol-4-yl)ethynyl)pyridin-4-yl)piperidin-4-yl)ethan-1-ol]: the IC50 against EGFR L858R/T790M/C797S (setting [1]) is 0.7 nM; on EGFR L858R/T790M/C797S (setting [2]), 0.5 nM; at EGFR L858R/C797S (setting [3]), 12.9 nM; at EGFR L858R/C797S (setting [4]), 2.8 nM; on EGFR Del19/T790M/C797S (setting [5]), 0.9 nM; on EGFR Del19/T790M/C797S (setting [6]) it was 1.1 nM. In addition, the IC50 at EGFR wildtype (WT) (IC50 WT (nM), 100 μM ATP) is above 10000 nM; on EGFR wildtype (WT) (setting [7]) it was 31.9 nM; against EGFR Del19/C797S (setting [8]), 4.4 nM; at EGFR Del19/C797S (setting [9]) it was 3 nM.

`Cn1cc(C#Cc2cnc(Nc3ccnc(-c4cnn(S(=O)(=O)C5CC5)c4)n3)cc2N2CCC(CO)CC2)cn1` [Example 29, (1-(2-((2-(1-(Cyclopropylsulfonyl)-1H-pyrazol-4-yl)pyrimidin-4-yl)amino)-5-((1-methyl-1H-pyrazol-4-yl)ethynyl)pyridin-4-yl)piperidin-4-yl)methanol]: the IC50 against EGFR L858R/T790M/C797S (setting [1]) was found to be 2.3 nM; at EGFR L858R/C797S (setting [3]), 28.1 nM; against EGFR Del19/T790M/C797S (setting [5]), 1.8 nM; on EGFR wildtype (WT) (IC50 WT (nM), 100 μM ATP), 8000 nM; at EGFR Del19/C797S (setting [8]), 2.7 nM.

As to `CN1CCN(C2CCN(c3cc(Nc4ccnc(-c5cnn(S(=O)(=O)C6CC6)c5)n4)ncc3C#Cc3ccsc3)CC2)CC1` [Example 226, 2-(1-(Cyclopropylsulfonyl)-1H-pyrazol-4-yl)-N-(4-(4-(4-methylpiperazin-1-yl)piperidin-1-yl)-5-(thiophen-3-ylethynyl)pyridin-2-yl)pyrimidin-4-amine], the IC50 was 1.1 nM at EGFR L858R/T790M/C797S (setting [1]); 43.4 nM at EGFR L858R/C797S (setting [3]); 1.1 nM on EGFR Del19/T790M/C797S (setting [5]); above 10000 nM at EGFR wildtype (WT) (IC50 WT (nM), 100 μM ATP); 5.1 nM on EGFR Del19/C797S (setting [8]).

As to `O=S(=O)(C1CC1)n1cc(-c2nccc(Nc3cc(NC[C@H]4CC[C@@H](O)C4)c(C#Cc4cnn(C(F)F)c4)cn3)n2)cn1` [Example 306, (1R,3S)-3-(((2-((2-(1-(Cyclopropylsulfonyl)-1H-pyrazol-4-yl)pyrimidin-4-yl)amino)-5-((1-(difluoromethyl)-1H-pyrazol-4-yl)ethynyl)pyridin-4-yl)amino)methyl)cyclopentan-1-ol], the IC50 on EGFR L858R/T790M/C797S (setting [10]) came out at 0.4 nM; against EGFR L858R/T790M/C797S (setting [1]) it was 3.9 nM; at EGFR L858R/C797S (setting [11]) it was 4.3 nM; at EGFR L858R/C797S (setting [3]), 6.8 nM; on EGFR Del19/T790M/C797S (setting [12]) it was 1 nM; against EGFR Del19/T790M/C797S (setting [5]), 1.6 nM. Moreover, the IC50 is 14.6 nM on EGFR wildtype (WT) (setting [13]); above 10000 nM against EGFR wildtype (WT) (IC50 WT (nM), 100 μM ATP); 3.4 nM on EGFR Del19/C797S (setting [14]); 4.6 nM at EGFR Del19/C797S (setting [8]).

As to `CN(C)CCn1cc(C#Cc2cnc(Nc3ccnc(-c4cnn(S(=O)(=O)C5CC5)c4)n3)cc2N2CCC(F)(CO)CC2)cn1` [Example 117, (1-(2-((2-(1-(Cyclopropylsulfonyl)-1H-pyrazol-4-yl)pyrimidin-4-yl)amino)-5-((1-(2-(dimethylamino)ethyl)-1H-pyrazol-4-yl)ethynyl)pyridin-4-yl)-4-fluoropiperidin-4-yl)methanol], the IC50 was 0.3 nM against EGFR L858R/T790M/C797S (setting [1]); 0.2 nM at EGFR L858R/T790M/C797S (setting [2]); 3.4 nM on EGFR L858R/C797S (setting [3]); 0.3 nM at EGFR L858R/C797S (setting [4]); 0.4 nM on EGFR Del19/T790M/C797S (setting [5]); 0.3 nM on EGFR Del19/T790M/C797S (setting [6]). In addition, the IC50 on EGFR wildtype (WT) (IC50 WT (nM), 100 μM ATP) came to 1020 nM; at EGFR wildtype (WT) (setting [7]), 3.7 nM; against EGFR Del19/C797S (setting [8]), 0.7 nM; at EGFR Del19/C797S (setting [9]), 0.4 nM.

Turning to `CN(C)S(=O)(=O)n1cc(-c2nccc(Nc3cc(N4CCC(C)(CO)CC4)c(C#Cc4cnn(C(F)(F)F)c4)cn3)n2)cn1` [Example 273, 4-(4-((4-(4-(Hydroxymethyl)-4-methylpiperidin-1-yl)-5-((1-(trifluoromethyl)-1H-pyrazol-4-yl)ethynyl)pyridin-2-yl)amino)pyrimidin-2-yl)-N, N-dimethyl-1H-pyrazole-1-sulfonamide], the IC50 stood at 0.3 nM on EGFR L858R/T790M/C797S (setting [10]); 1.5 nM at EGFR L858R/T790M/C797S (setting [1]); 16.6 nM on EGFR L858R/C797S (setting [11]); 198 nM at EGFR L858R/C797S (setting [3]); 5.6 nM on EGFR Del19/T790M/C797S (setting [12]); 2.9 nM against EGFR Del19/T790M/C797S (setting [5]). The IC50 at EGFR wildtype (WT) (setting [13]) was 46.1 nM; on EGFR wildtype (WT) (IC50 WT (nM), 100 μM ATP), above 10000 nM; on EGFR Del19/C797S (setting [14]), 35.8 nM; at EGFR Del19/C797S (setting [8]), 97.4 nM.
